In article PMC9034178, “Self-assemblies of pluronic micelles in partitioning of anticancer drugs and effectiveness of this system towards target protein” (RSC Advances, 2021):

Each compound was assayed against T1, bovine serum albumin (BSA) (Bos taurus, UniProt P02769) (assay: tryptophan fluorescence quenching (ex […] nm), double-log plot). Conditions: no pluronic; pH 7.4, 298.15 K.
T1 construct: gene ALB
Type: binding

T1 sequence (P02769 25-607): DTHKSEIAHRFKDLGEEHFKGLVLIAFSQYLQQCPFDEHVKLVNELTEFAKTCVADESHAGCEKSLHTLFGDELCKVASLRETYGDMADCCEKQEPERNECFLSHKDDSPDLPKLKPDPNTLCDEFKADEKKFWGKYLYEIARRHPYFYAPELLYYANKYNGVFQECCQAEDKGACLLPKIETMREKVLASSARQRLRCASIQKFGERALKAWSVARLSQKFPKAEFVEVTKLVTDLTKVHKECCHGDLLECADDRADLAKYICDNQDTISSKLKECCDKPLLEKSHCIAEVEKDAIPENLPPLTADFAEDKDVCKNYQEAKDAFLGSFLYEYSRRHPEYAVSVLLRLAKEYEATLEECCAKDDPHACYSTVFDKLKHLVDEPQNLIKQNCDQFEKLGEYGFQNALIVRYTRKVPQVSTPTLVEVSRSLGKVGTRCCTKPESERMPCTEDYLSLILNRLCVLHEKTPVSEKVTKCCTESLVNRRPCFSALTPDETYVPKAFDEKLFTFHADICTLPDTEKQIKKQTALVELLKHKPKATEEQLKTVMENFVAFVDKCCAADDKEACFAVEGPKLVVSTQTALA

Row | SMILES | K a (M^-1)
1 | NC(=O)NO [hydroxyurea] | (2.3 ± 0.4) × 10^2 M^-1
2 | Nc1ccn([C@@H]2O[C@H](CO)[C@@H](O)[C@@H]2O)c(=O)n1 [cytarabine] | (1.1 ± 0.1) × 10^2 M^-1
3 | Nc1ccn([C@@H]2O[C@H](CO)[C@@H](O)C2(F)F)c(=O)n1 [gemcitabine] | (2.4 ± 0.2) × 10^2 M^-1
